ChEMBL document CHEMBL5518186, “Discovery of the cereblon-recruiting tubulin PROTACs effective in overcoming Taxol resistance in vitro and in vivo” (Eur J Med Chem, 2024)
Calls of active or inactive are those of the source. The calls are words filed in the database; no cut-off is given here.

Assays:
MGC-803 = test: Antiproliferative activity against human MGC-803 cells incubated for 72 hrs; format: functional, cell-based; conditions: MGC-803, 72 h
[1] = molecular target: T1, Protein cereblon/Tubulin beta-3 chain (Homo sapiens, UniProt Q13509+Q96SW2); test: Protac activity at CRBN/beta3-tubulin in human A549 cells assessed as reduction in beta3-tubulin level at 0.01 to 1 uM incubated for 48 hrs by immunoblotting analysis; format: cell-based; conditions: dose 0.01-1 µM
T1 sequence (Q13509 whole entry, looked up): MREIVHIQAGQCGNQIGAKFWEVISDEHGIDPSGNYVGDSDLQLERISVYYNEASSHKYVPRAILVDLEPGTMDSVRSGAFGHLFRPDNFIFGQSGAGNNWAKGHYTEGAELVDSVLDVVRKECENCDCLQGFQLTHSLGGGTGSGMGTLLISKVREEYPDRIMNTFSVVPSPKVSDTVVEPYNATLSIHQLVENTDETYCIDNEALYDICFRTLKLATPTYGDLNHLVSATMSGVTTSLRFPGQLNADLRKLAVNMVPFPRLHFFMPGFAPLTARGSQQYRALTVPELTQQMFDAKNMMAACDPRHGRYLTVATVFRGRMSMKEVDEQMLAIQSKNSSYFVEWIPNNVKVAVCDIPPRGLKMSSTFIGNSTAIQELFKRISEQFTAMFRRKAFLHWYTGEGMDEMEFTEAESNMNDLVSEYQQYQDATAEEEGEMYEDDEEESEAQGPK
T1 sequence (Q96SW2 whole entry, looked up): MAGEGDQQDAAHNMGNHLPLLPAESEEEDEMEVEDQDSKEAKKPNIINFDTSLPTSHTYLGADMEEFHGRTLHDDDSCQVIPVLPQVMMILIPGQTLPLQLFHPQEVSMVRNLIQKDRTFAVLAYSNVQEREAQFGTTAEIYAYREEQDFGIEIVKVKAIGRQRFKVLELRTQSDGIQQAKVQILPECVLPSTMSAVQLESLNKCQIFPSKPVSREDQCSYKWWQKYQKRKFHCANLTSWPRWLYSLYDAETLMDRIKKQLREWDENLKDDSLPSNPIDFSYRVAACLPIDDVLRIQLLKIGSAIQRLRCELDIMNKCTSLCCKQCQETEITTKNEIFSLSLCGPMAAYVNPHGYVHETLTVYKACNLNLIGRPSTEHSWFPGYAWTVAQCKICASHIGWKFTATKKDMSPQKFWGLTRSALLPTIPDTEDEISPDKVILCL

[2] = molecular target: T2, Protein cereblon-alpha tubulin (Homo sapiens) (UniProt P0DPH7+P68366+Q71U36+P68363+Q9BQE3+Q6PEY2+A6NHL2+Q9NY65+Q96SW2); test: (§1) Protac activity at CRBN/alpha-tubulin in human A549 cells assessed as reduction in alpha-tubulin level incubated for 48 hrs by immunoblotting analysis; format: cell-based
[3] = molecular target: Protein cereblon-alpha tubulin; test: as §1; format: cell-based
[4] = molecular target: T2, Protein cereblon-alpha tubulin (Homo sapiens); test: Protac activity at CRBN/alpha-tubulin in human HeLa cells assessed as reduction in alpha-tubulin level at 10 to 1000 nM incubated for 48 hrs by immunoblotting analysis; format: cell-based; conditions: dose 10-1000 nM
[5] = molecular target: T2, Protein cereblon-alpha tubulin (Homo sapiens); test: Protac activity at CRBN/alpha-tubulin in human MCF7 cells assessed as reduction in alpha-tubulin level at 10 to 1000 nM incubated for 48 hrs by immunoblotting analysis; format: cell-based; conditions: dose 10-1000 nM
[6] = molecular target: T3, Protein cereblon/Tubulin beta (Homo sapiens) (UniProt P68371+Q9H4B7+Q13509+P04350+Q3ZCM7+P07437+Q13885+Q9BVA1+Q9BUF5+Q96SW2+A6NNZ2); test: Protac activity at CRBN/beta-tubulin in human MCF7 cells assessed as reduction in beta-tubulin level at 10 to 1000 nM incubated for 48 hrs by immunoblotting analysis; format: cell-based; conditions: dose 10-1000 nM
[7] = molecular target: T1, Protein cereblon/Tubulin beta-3 chain; test: Protac activity at CRBN/beta3-tubulin in human HepG2 cells assessed as reduction in beta3-tubulin level at 10 to 1000 nM incubated for 48 hrs by immunoblotting analysis; format: cell-based; conditions: dose 10-1000 nM
[8] = molecular target: T1, Protein cereblon/Tubulin beta-3 chain; test: Protac activity at CRBN/beta3-tubulin in human MGC-803 cells assessed as reduction in beta3-tubulin level at 10 to 1000 nM incubated for 48 hrs by immunoblotting analysis; format: cell-based; conditions: dose 10-1000 nM
[9] = molecular target: T2, Protein cereblon-alpha tubulin (Homo sapiens); test: Protac activity at CRBN/alpha-tubulin in human A549 cells assessed as reduction in alpha-tubulin level at 0.25 uM after 72 hrs by immunoblotting analysis; format: cell-based; parameters: scale not given: the % may be the effect or the level left
[10] = molecular target: T3, Protein cereblon/Tubulin beta (Homo sapiens); test: Protac activity at CRBN/beta-tubulin in human A549 cells assessed as reduction in beta-tubulin level at 0.25 uM after 48 hrs by immunoblotting analysis; format: cell-based; parameters: scale not given: the % may be the effect or the level left
[11] = molecular target: T3, Protein cereblon/Tubulin beta (Homo sapiens); test: Protac activity at CRBN/beta-tubulin in human A549 cells assessed as reduction in beta-tubulin level at 0.25 uM pretreated for 48 hrs followed by compound washout and measured upto 12 hrs by immunoblotting analysis; format: cell-based
[12] = molecular target: T1, Protein cereblon/Tubulin beta-3 chain; test: Protac activity at CRBN/beta3-tubulin in human A549 cells assessed as reduction in beta3-tubulin level at 0.25 uM after 72 hrs by immunoblotting analysis; format: cell-based
[13] = molecular target: T1, Protein cereblon/Tubulin beta-3 chain; test: Protac activity at CRBN/beta3-tubulin in human A549 cells assessed as reduction in beta3-tubulin level at 0.25 uM pretreated for 48 hrs followed by compound washout and measured after 24 hrs by immunoblotting analysis; format: cell-based
[14] = molecular target: T3, Protein cereblon/Tubulin beta (Homo sapiens); test: Protac activity at CRBN/beta-tubulin in human A549 cells assessed as reduction in beta-tubulin level at 0.25 uM pretreated with MG-132 followed by compound addition and measured after 24 hrs by immunoblotting analysis; format: cell-based
[15] = molecular target: T1, Protein cereblon/Tubulin beta-3 chain; test: Protac activity at CRBN/beta3-tubulin in human A549 cells assessed as reduction in beta3-tubulin level at 0.25 uM pretreated with MG-132 followed by compound addition and measured after 24 hrs by immunoblotting analysis; format: cell-based
[16] = molecular target: T1, Protein cereblon/Tubulin beta-3 chain; test: Protac activity at CRBN/beta3-tubulin in human A549 cells assessed as reduction in beta3-tubulin level at 0.25 uM pretreated with pomalidomide for 2 hrs followed by compound addition and measured after 24 hrs by immunoblotting analysis; format: cell-based
[17] = molecular target: T3, Protein cereblon/Tubulin beta (Homo sapiens); test: Protac activity at CRBN/beta-tubulin in human A549/Taxol cells assessed as reduction in beta-tubulin level at 0.25 uM pretreated with pomalidomide for 2 hrs followed by compound addition and measured after 48 hrs by immunoblotting analysis; format: cell-based
[18] = molecular target: T3, Protein cereblon/Tubulin beta (Homo sapiens); test: Protac activity at CRBN/beta-tubulin in human A549/Taxol cells assessed as reduction in beta-tubulin level at 0.25 uM pretreated with CA-4 for 2 hrs followed by compound addition and measured after 48 hrs by immunoblotting analysis; format: cell-based
A549 [19] = test: Inhibition of cell growth in human A549 cells incubated for 72 hrs by SRB method; format: functional, cell-based
A549/TR [20] = test: Inhibition of cell growth in human A549/Taxol cells incubated for 72 hrs by SRB method; format: functional, cell-based
[21] = Inhibition of cell growth in human MCF7/Taxol cells incubated for 72 hrs by SRB method; format: functional, cell-based
A549 [22] = test: Inhibition of colony formation in human A549 cells incubated for 24 hrs followed by media replacement at every 3 days for 14 days by crystal violet staining based assay; format: functional, cell-based; conditions: dose 2-50 nM, time 14.0 day
A549 [23] = test: Induction of cell cycle arrest in human A549 cells assessed as accumulation of cells at G0/G1 phase at 0.002 uM incubated for 24 hrs by PI staining based flow cytometry analysis (reference value: 66.75%); format: functional
A549 [24] = test: Induction of cell cycle arrest in human A549 cells assessed as accumulation of cells at G2/M phase at 0.002 uM incubated for 24 hrs by PI staining based flow cytometry analysis (reference value: 31.86%); format: functional
A549 [25] = test: Induction of cell cycle arrest in human A549 cells assessed as accumulation of cells at G2/M phase at 0.01 uM incubated for 24 hrs by PI staining based flow cytometry analysis (reference value: 31.86%); format: functional
A549 [26] = test: Induction of cell cycle arrest in human A549 cells assessed as accumulation of cells at G0/G1 phase at 0.05 uM incubated for 24 hrs by PI staining based flow cytometry analysis (reference value: 66.75%); format: functional
A549 [27] = test: Induction of cell cycle arrest in human A549 cells assessed as accumulation of cells at S phase at 0.05 uM incubated for 24 hrs by PI staining based flow cytometry analysis (reference value: 1.39%); format: functional
A549/TR [28] = test: Induction of cell cycle arrest in human A549/Taxol cells assessed as accumulation of cells at G0/G1 phase at 0.01 uM incubated for 24 hrs by PI staining based flow cytometry analysis (reference value: 77.86%); format: functional
A549/TR [29] = test: Induction of cell cycle arrest in human A549/Taxol cells assessed as accumulation of cells at G2/M phase at 0.05 uM incubated for 24 hrs by PI staining based flow cytometry analysis (reference value: 17.02%); format: functional
HUVEC = test: Antiangiogenic activity in HUVECs assessed as reduction in cord formation at 2.5 nM incubated for 6 to 8 hrs by inverted microscopic analysis; format: functional, cell-based; conditions: Homo sapiens, time 6-8 hrs
[30] = Toxicity in nude mouse xenografted with human A549/Taxol cells assessed as body weight loss at 15 mg/kg, ip administered once every 2 days for 23 days and measured every 3 days; format: organism-based, A549/TR; conditions: in vivo, 552 h, time 23 day
HepG2 [31] = test: Inhibition of DNA synthesis in human HepG2 cells; format: functional, cell-based
HepG2 [32] = test: Induction of apoptosis in human HepG2 cells; format: functional, cell-based

In the case of `COc1ccc(/C=C\c2cc(OC)c(OC)c(OC)c2)cc1OC(=O)CCCNc1cccc2c1C(=O)N(C1CCC(=O)NC1=O)C2=O` (stereo unspecified), the IC50 (MGC-803) is reported as 8 nM, the Activity [1] is reported as “Active” and the Activity [2] is reported as “Dose-Dependent Effect”. The DC50 [3] was 296 nM, the Activity [4] was “Active” and the Activity [5] was “Active”. The Activity [6] was “Active”, the Activity [7] was “Active” and the Activity [8] was “Active”. For the same molecule, the Activity [9] was 43.7%, the Activity [10] was 31.1% and the Activity [11] was “Active”. For the same molecule, the Activity [12] was “inactive”, the Activity [13] was “inactive” and the Activity [14] was “inactive”. For the same molecule, the Activity [15] was “inactive”, the Activity [16] was “inactive” and the Activity [17] was “inactive”. For the same molecule, the Activity [18] was “inactive”, the inhibition (A549 [19]) was “Dose-Dependent Effect” and the IC50 (A549 [19]; A549, 72 h) was 10 nM. For the same molecule, the IC50 (A549/TR [20]) was 5 nM, the inhibition (A549/TR [20]) was “Dose-Dependent Effect” and the IC50 [21] was 6 nM. The inhibition (A549 [22]) was “Dose-Dependent Effect”, the Activity (A549 [23]) was 57.32% and the Activity (A549 [24]) was 37.03%. It also gave an Activity (A549 [25]) of 68.36%, an Activity (A549 [26]) of 10.15% and an Activity (A549 [27]) of 16.44%. For the same molecule, the Activity (A549/TR [28]) was 26.79%, the Activity (A549/TR [29]) was 66.57% and the Activity (HUVEC) was “Active”. The Activity [30] was “Non-Toxic”, the inhibition (HepG2 [31]) was “Dose-Dependent Effect” and the Activity (HepG2 [32]) was “Active”.
